The IC50 is the point on the concentration scale where inhibition reaches its midpoint. The term DC50 denotes the midpoint of the concentration-degradation curve. Usually Dmax stands for the greatest extent of degradation seen.

From patent US20260007681A1, “INDOLE DERIVATIVES AS ESTROGEN RECEPTOR DEGRADERS” (REGENTS OF THE UNIVERSITY OF MICHIGAN, priority 2022, published 2026) come the findings set out here.

Chain of ER in MCF-7 cells (P03372 whole entry): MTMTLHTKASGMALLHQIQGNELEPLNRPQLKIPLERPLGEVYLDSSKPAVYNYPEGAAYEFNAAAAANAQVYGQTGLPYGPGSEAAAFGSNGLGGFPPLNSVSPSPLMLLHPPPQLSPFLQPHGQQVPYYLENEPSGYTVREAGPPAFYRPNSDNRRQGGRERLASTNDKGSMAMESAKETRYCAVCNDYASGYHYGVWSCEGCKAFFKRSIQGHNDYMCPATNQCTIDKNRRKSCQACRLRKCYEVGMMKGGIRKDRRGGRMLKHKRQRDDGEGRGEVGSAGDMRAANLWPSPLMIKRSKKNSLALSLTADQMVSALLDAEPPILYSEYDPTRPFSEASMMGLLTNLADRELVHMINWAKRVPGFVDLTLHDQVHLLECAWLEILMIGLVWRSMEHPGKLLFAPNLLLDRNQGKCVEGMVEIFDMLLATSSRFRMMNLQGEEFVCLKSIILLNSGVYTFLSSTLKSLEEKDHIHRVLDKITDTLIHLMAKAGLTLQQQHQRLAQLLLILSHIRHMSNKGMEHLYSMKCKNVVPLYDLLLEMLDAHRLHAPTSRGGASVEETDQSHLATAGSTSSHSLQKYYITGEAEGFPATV

The target in the first assay is CRBN/DDB1 (Homo sapiens (Human), UniProt Q96SW2).
Chain of CRBN/DDB1 (Q96SW2 whole entry): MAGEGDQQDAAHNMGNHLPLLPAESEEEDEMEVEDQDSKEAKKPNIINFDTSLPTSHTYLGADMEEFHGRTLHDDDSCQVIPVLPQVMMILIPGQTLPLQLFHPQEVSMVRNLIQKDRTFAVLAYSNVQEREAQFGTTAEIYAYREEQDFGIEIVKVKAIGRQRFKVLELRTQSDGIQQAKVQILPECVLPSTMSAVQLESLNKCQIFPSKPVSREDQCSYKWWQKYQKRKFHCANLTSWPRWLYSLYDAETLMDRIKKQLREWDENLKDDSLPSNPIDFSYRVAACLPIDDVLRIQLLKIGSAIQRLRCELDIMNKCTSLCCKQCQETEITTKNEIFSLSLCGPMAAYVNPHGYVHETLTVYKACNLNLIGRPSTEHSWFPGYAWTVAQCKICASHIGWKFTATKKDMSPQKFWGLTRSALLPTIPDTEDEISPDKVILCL
Chain of CRBN/DDB1 (Q16531 whole entry partner): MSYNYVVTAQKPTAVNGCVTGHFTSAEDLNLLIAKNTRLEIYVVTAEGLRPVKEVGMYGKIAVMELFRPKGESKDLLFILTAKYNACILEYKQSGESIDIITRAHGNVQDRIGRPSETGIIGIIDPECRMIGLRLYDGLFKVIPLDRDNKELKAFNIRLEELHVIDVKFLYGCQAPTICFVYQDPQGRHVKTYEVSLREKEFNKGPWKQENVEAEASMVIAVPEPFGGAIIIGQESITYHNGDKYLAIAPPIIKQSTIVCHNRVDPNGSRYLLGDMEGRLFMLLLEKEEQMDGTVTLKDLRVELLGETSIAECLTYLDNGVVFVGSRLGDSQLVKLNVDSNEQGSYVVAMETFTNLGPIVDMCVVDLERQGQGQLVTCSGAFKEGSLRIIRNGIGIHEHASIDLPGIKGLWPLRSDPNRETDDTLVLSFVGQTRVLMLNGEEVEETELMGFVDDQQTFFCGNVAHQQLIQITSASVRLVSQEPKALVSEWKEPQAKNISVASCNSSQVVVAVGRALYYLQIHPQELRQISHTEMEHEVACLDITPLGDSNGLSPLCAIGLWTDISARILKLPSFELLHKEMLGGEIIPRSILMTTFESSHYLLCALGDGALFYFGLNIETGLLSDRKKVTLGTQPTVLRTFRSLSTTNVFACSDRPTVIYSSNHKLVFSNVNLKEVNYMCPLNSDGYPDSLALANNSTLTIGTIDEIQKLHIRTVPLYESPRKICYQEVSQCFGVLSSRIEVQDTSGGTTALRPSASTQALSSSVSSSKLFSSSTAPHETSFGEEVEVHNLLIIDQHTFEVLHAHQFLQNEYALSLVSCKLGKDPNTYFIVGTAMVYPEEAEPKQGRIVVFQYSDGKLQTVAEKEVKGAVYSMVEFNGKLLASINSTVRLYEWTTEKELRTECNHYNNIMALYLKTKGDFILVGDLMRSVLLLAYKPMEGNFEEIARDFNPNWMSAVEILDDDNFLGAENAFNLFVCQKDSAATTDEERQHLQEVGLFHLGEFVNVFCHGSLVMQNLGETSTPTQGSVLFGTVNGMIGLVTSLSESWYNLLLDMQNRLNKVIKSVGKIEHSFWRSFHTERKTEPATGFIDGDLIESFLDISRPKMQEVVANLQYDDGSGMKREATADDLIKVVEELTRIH
Assay: not given
In kind it is binding. Conditions: His tagged CRBN+DDB-DLS7+CXU4, Cy5-labeled Thalidomide probe, one hour incubation; read-out: CRBN HTRF IC50. The procedure:
The binding potency was determined using H-TRF assay technology (Perkin Elmer). Compounds were serially diluted in DMSO and 0.2 μL volume was transferred to white 384-well plate.
As to `C[C@@H]1Cc2c([nH]c3ccccc23)[C@@H](c2cnc(N3C[C@@H]4[C@@H](CN5CCN6c7cc8c(cc7OC[C@@H]6C5)C(=O)N(C5CCC(=O)NC5=O)C8)[C@@H]4C3)nc2)N1CC(F)F` (stereo partly drawn) [Compound A4, (S)-3-((S)-3-(((1R,5S,6S)-3-(5-((1R,3R)-2-(2,2-difluoroethyl)-3-methyl-2,3,4,9-tetrahydro-1H-pyrido[3,4-b]indol-1-yl)pyrimidin-2-yl)-3-azabicyclo[3.1.0]hexan-6-yl)methyl)-8-oxo-1,2,3,4,4a,5,8,10-octahydro-9H-pyrazino[1′,2′:4,5][1,4]oxazino[2,3-f]isoindol-9-yl)piperidine-2,6-dione], the IC50 was 500 to 5000 nM.

Turning to `C[C@@H]1Cc2c([nH]c3ccccc23)[C@@H](c2cnc(N3CCC(CN4CCN5c6ccc7c(c6OC[C@@H]5C4)CN(C4CCC(=O)NC4=O)C7=O)CC3)nc2)N1CC(F)F` (stereo partly drawn) [Compound A5, 3-((S)-7-((1-(5-((1R,3R)-2-(2,2-difluoroethyl)-3-methyl-2,3,4,9-tetrahydro-1H-pyrido[3,4-b]indol-1-yl)pyrimidin-2-yl)piperidin-4-yl)methyl)-1-oxo-1,3,5,5a,6,7,8,9-octahydro-2H-pyrazino[1′,2′:4,5]oxazino[2,3-e]isoindol-2-yl)piperidine-2,6-dione], the half-inhibitory concentration (IC50) was 50 to 500 nM.

Take `C[C@@H]1Cc2c([nH]c3ccccc23)[C@@H](c2cnc(N3CCC4(CC3)CC(CN3CCN5c6ccc7c(c6OC[C@@H]5C3)CN(C3CCC(=O)NC3=O)C7=O)C4)nc2)N1CC(F)F` (stereo partly drawn) [Compound A6, 3-((S)-7-((7-(5-((1R,3R)-2-(2,2-difluoroethyl)-3-methyl-2,3,4,9-tetrahydro-1H-pyrido[3,4-b]indol-1-yl)pyrimidin-2-yl)-7-azaspiro[3.5]nonan-2-yl)methyl)-1-oxo-1,3,5,5a,6,7,8,9-octahydro-2H-pyrazino[1′,2′:4,5][1,4]oxazino[2,3-e]isoindol-2-yl)piperidine-2,6-dione]: the IC50 was < 50 nM.

As to `COc1ccc(C(=O)N2CCC(CN3CCN(c4ncc([C@@H]5c6[nH]c7ccccc7c6C[C@@H](C)N5CC(F)F)cn4)CC3)CC2)cc1N1CCC(=O)NC1=O` [Compound A7, 1-(5-(4-((4-(5-((1R,3R)-2-(2,2-difluoroethyl)-3-methyl-2,3,4,9-tetrahydro-1H-pyrido[3,4-b]indol-1-yl)pyrimidin-2-yl)piperazin-1-yl)methyl)piperidine-1-carbonyl)-2-methoxyphenyl) dihydropyrimidine-2,4(1H,3H)-dione], the IC50 lay within 500 to 5000 nM.

As for `CS(=O)(=O)N1CCc2c([nH]c3ccccc23)[C@H]1c1c(F)cc(N2CCC3(CCN(C(=O)CN4Cc5cc6c(cc5C4)C(=O)N(C4CCC(=O)NC4=O)C6=O)CC3)CC2)cc1F` (stereo partly drawn) [Compound A8, 6-(2-(9-(3,5-difluoro-4-((R)-2-(methylsulfonyl)-2,3,4,9-tetrahydro-1H-pyrido[3,4-b]indol-1-yl)phenyl)-3,9-diazaspiro[5.5]undecan-3-yl)-2-oxoethyl)-2-(2,6-dioxopiperidin-3-yl)-6,7-dihydropyrrolo[3,4-f]isoindole-1,3(2H,5H)-dione], the IC50 was > 5000 nM.

Consider `C[C@@H]1Cc2c([nH]c3ccccc23)[C@@H](c2cnc(N3C[C@@H]4[C@H](CN5CCN6c7cc8c(cc7OC[C@@H]6C5)C(=O)N([C@H]5CCC(=O)NC5=O)C8)[C@@H]4C3)nc2)N1CC(C)(C)F` [Compound A13, (S)-3-((S)-3-(((1R,5S,6R)-3-(5-((1R,3R)-2-(2-fluoro-2-methylpropyl)-3-methyl-2,3,4,9-tetrahydro-1H-pyrido[3,4-b]indol-1-yl)pyrimidin-2-yl)-3-azabicyclo[3.1.0]hexan-6-yl)methyl)-8-oxo-1,2,3,4,4a,5,8,10-octahydro-9H-pyrazino[1′,2′:4,5][1,4]oxazino[2,3-f]isoindol-9-yl)piperidine-2,6-dione], for which the IC50 was in the range of 50 to 500 nM.

Turning to `C[C@@H]1Cc2c([nH]c3ccccc23)[C@@H](c2cnc(N3CC[C@@H](CN4CCN5c6ccc7c(c6OC[C@@H]5C4)CN(C4CCC(=O)NC4=O)C7=O)C3)nc2)N1CC(F)F` (stereo partly drawn) [Compound A14, 3-((S)-7-(((S)-1-(5-((1R,3R)-2-(2,2-difluoroethyl)-3-methyl-2,3,4,9-tetrahydro-1H-pyrido[3,4-b]indol-1-yl)pyrimidin-2-yl)pyrrolidin-3-yl)methyl)-1-oxo-1,3,5,5a,6,7,8,9-octahydro-2H-pyrazino[1′,2′:4,5][1,4]oxazino[2,3-e]isoindol-2-yl)piperidine-2,6-dione], the IC50 is < 50 nM.

Regarding `Cc1nn(C2CCC(=O)NC2=O)c2ccc(N3CCN(CC4CC5(CCN(c6ncc([C@@H]7c8[nH]c9ccccc9c8C[C@@H](C)N7CC(C)(C)F)cn6)CC5)C4)CC3)cc12` (stereo partly drawn) [Compound A15, 3-(5-(4-((7-(5-((1R,3R)-2-(2-fluoro-2-methylpropyl)-3-methyl-2,3,4,9-tetrahydro-1H-pyrido[3,4-b]indol-1-yl)pyrimidin-2-yl)-7-azaspiro[3.5]nonan-2-yl)methyl)piperazin-1-yl)-3-methyl-1H-indazol-1-yl)piperidine-2,6-dione], the IC50 was < 50 nM.

Turning to `C[C@@H]1Cc2c([nH]c3ccccc23)[C@@H](c2cnc(N3CCC4(CC3)CC(CN3CCN(c5ccc(NC6CCC(=O)NC6=O)cc5F)CC3)C4)nc2)N1CC(F)F` (stereo partly drawn) [Compound A16, 3-((4-(4-((7-(5-((1R,3R)-2-(2,2-difluoroethyl)-3-methyl-2,3,4,9-tetrahydro-1H-pyrido[3,4-b]indol-1-yl)pyrimidin-2-yl)-7-azaspiro[3.5]nonan-2-yl)methyl)piperazin-1-yl)-3-fluorophenyl)amino)piperidine-2,6-dione], the IC50 was in the range of 50 to 500 nM.

Regarding `CS(=O)(=O)N1CCc2c([nH]c3ccccc23)[C@H]1c1c(F)cc(N2CCC(CN3CCN4c5cc6c(cc5OC[C@@H]4C3)C(=O)N([C@H]3CCC(=O)NC3=O)C6)CC2)cc1F` [Compound A17, (S)-3-((S)-3-((1-(3,5-difluoro-4-((R)-2-(methylsulfonyl)-2,3,4,9-tetrahydro-1H-pyrido[3,4-b]indol-1-yl)phenyl)piperidin-4-yl)methyl)-8-oxo-1,2,3,4,4a,5,8,10-octahydro-9H-pyrazino[1′,2′:4,5][1,4]oxazino[2,3-f]isoindol-9-yl)piperidine-2,6-dione], the IC50 was > 5000 nM.

With `C[C@@H]1Cc2c([nH]c3ccccc23)[C@@H](c2cnc(OC3CC(C(=O)N4CCC(N5Cc6cc7c(cc6C5)C(=O)N(C5CCC(=O)NC5=O)C7=O)CC4)C3)nc2)N1CC(F)F` (stereo partly drawn) [Compound A18, 6-(1-((1R,3r)-3-((5-((1R,3R)-2-(2,2-difluoroethyl)-3-methyl-2,3,4,9-tetrahydro-1H-pyrido[3,4-b]indol-1-yl)pyrimidin-2-yl)oxy)cyclobutane-1-carbonyl)piperidin-4-yl)-2-(2,6-dioxopiperidin-3-yl)-6,7-dihydropyrrolo[3,4-f]isoindole-1,3(2H,5H)-dione], the IC50 lay in the range of 50 to 500 nM.

With `CS(=O)(=O)N1CCc2c([nH]c3ccccc23)[C@@H]1c1c(F)cc(N2CCC3(CCN(C(=O)CN4Cc5cc6c(cc5C4)C(=O)N(C4CCC(=O)NC4=O)C6=O)CC3)CC2)cc1F` (stereo partly drawn) [Compound A20, 6-(2-(9-(3,5-difluoro-4-((S)-2-(methylsulfonyl)-2,3,4,9-tetrahydro-1H-pyrido[3,4-b]indol-1-yl)phenyl)-3,9-diazaspiro[5.5]undecan-3-yl)-2-oxoethyl)-2-(2,6-dioxopiperidin-3-yl)-6,7-dihydropyrrolo[3,4-f]isoindole-1,3(2H,5H)-dione], the IC50 was > 5000 nM.

Consider `CS(=O)(=O)N1CCc2c([nH]c3ccccc23)[C@H]1c1c(F)cc(N2CCC3(CCN(C(=O)CN4Cc5cc6c(cc5C4)C(=O)N(C4CCC(=O)NC4=O)C6=O)CC3)CC2)cc1F` (stereo partly drawn) [Compound A21, 6-(2-(9-(3,5-difluoro-4-((R)-2-(methylsulfonyl)-2,3,4,9-tetrahydro-1H-pyrido[3,4-b]indol-1-yl)phenyl)-3,9-diazaspiro[5.5]undecan-3-yl)-2-oxoethyl)-2-(2,6-dioxopiperidin-3-yl)-6,7-dihydropyrrolo[3,4-f]isoindole-1,3(2H,5H)-dione], for which the IC50 was > 5000 nM.

Consider `C[C@@H]1Cc2c([nH]c3ccccc23)[C@@H](c2cnc(N3CCC4(CC3)CC(CN3CCC5(CC3)COc3cc6c(cc35)CN(C3CCC(=O)NC3=O)C6=O)C4)nc2)N1CC(F)F` (stereo partly drawn) [Compound A26, 3-(1′-((7-(5-((1R,3R)-2-(2,2-difluoroethyl)-3-methyl-2,3,4,9-tetrahydro-1H-pyrido[3,4-b]indol-1-yl)pyrimidin-2-yl)-7-azaspiro[3.5]nonan-2-yl)methyl)-7-oxo-5,7-dihydro-2H,6H-spiro[furo[2,3-f]isoindole-3,4′-piperidin]-6-yl)piperidine-2,6-dione], for which the IC50 is 500 to 5000 nM.

A further assay concerns the target ER in MCF-7 cells (Homo sapiens (Human), UniProt P03372). Kind of assay: In-cell western (ICW) ER degradation assay in MCF-7 cells (Compounds A1-A70). Conditions: ER degradation, MCF-7 cells, 16 hrs treatment, 0.02 to 300 nM; read-out: MCF7 ICW DC50. In kind it is cell-based. The procedure:
ERa degradative activity of compounds can be assessed in MCF-7 and T47D Cells. MCF-7 and T47D cell are seeded and are subsequently treated with the compounds at certain concentrations (e.g., 0.02 to 300 nM). DMSO can be used as vehicle control. Cells are fixed and are blocked with Intercept (PBS) Blocking Buffer (e.g., Li—COR, Odyssey Blocking Buffer), and are stained with ER (e.g., 1:500, Cell signaling) primary antibody for overnight at cold room. Secondary Antibody (e.g., IRDye 800CW Goat anti-Rabbit IgG) and CellTag 700 Stain are added in Intercept (PBS) Blocking Buffer. Finally, cell plate is placed in incubator to dry. Image and signal are captured on Odyssey® DLx Imaging System.
Day 3: After 16 hrs of compounds treatment, cells were fixed by 4% PFA and permeabilized with elution buffer (0.1% Triton X-100 in 1% PBS Solution). Subsequently, cells were blocked with Intercept (PBS) Blocking Buffer (Li—COR, Odyssey Blocking Buffer), and were stained with ER (1:500, Cell signaling) primary antibody for overnight at cold room.
Day 4: Remove the buffer, add IRDye 800CW Goat anti-Rabbit IgG Secondary Antibody (1:2000) and CellTag 700 Stain (1:500) in Intercept (PBS) Blocking Buffer. Finally, cell plate is placed in incubator to dry. Image and signal were captured on Odyssey® DLx Imaging System.
On to `C[C@@H]1Cc2c([nH]c3ccccc23)[C@@H](c2cnc(N3CCC(CN4CCN5c6ccc7c(c6OC[C@@H]5C4)CN(C4CCC(=O)NC4=O)C7=O)CC3)nc2)N1CC(F)F` (stereo partly drawn) [Compound A5, 3-((S)-7-((1-(5-((1R,3R)-2-(2,2-difluoroethyl)-3-methyl-2,3,4,9-tetrahydro-1H-pyrido[3,4-b]indol-1-yl)pyrimidin-2-yl)piperidin-4-yl)methyl)-1-oxo-1,3,5,5a,6,7,8,9-octahydro-2H-pyrazino[1′,2′:4,5]oxazino[2,3-e]isoindol-2-yl)piperidine-2,6-dione], for which the DC50 is 1 to 10 nM.

Staying with this assay, now noted: MCF7, maximal ER degradation, MCF-7 cells, 16 hrs treatment; read-out: MCF7 ICW Dmax (%).
Turning to `C[C@@H]1Cc2c([nH]c3ccccc23)[C@@H](c2cnc(N3CCC(CN4CCN5c6ccc7c(c6OC[C@@H]5C4)CN(C4CCC(=O)NC4=O)C7=O)CC3)nc2)N1CC(F)F` (stereo partly drawn) [Compound A5, 3-((S)-7-((1-(5-((1R,3R)-2-(2,2-difluoroethyl)-3-methyl-2,3,4,9-tetrahydro-1H-pyrido[3,4-b]indol-1-yl)pyrimidin-2-yl)piperidin-4-yl)methyl)-1-oxo-1,3,5,5a,6,7,8,9-octahydro-2H-pyrazino[1′,2′:4,5]oxazino[2,3-e]isoindol-2-yl)piperidine-2,6-dione], the Dmax lay in the range of 50 to 75%.
